These results are taken from patent publication US20230123334A1, “AMINO LIPID COMPOUND, PREPARATION METHOD THEREFOR, AND APPLICATION THEREOF” (SHENZHEN SHENXIN BIOTECHNOLOGY CO., LTD., priority 2020, published 2023).

The subject of this test is HEK293 cells. The experiment in a line: Preliminary screening as mRNA vectors, EGFP mRNA transfection of HEK293 cells. The class given is cell-based. To be noted: EGFP mRNA 50 ng per well, 96-well plates; percentage of GFP fluorescent cells relative to total number of cells (Hoechst). As to the method:
Cell line: HEK293 cells (ATCC CRL-1573™)
Medium: DMEM supplemented with 10% fetal bovine serum (Invitrogen)
Screening: cell transfection on 96-well plates
Detection (readout): percentage of the number of GFP fluorescent cells relative to the total number of cells (the total number of cells was determined using nucleus dye Hoechst). Lipofectamine2000 (Invitrogen) was used as the positive control.
Method: the experimental method was basically the same with Example 4, and the mass of EGFP mRNA (TriLink) for transfection was 50 ng per well.

Regarding `CCCCCCCCCNc1nc(NCCN(C)C)nc(SCCCCCCCCC)n1` [Compound D1S9N9], the “Absolute mRNA transfection efficiency in HEK293 cells” value (from here on “Absolute mRNA transfection efficiency”) is 8.0%.
On to `CCCCCCCCCCCNc1nc(NCCN(C)C)nc(SCCCCCCCCC)n1` [Compound D1S9N11], for which the “Absolute mRNA transfection efficiency” value was 53.0%.
On to `CCCCCCCCCCCCNc1nc(NCCN(C)C)nc(SCCCCCCCCC)n1` [Compound D1S9N12], for which the “Absolute mRNA transfection efficiency” value worked out at 30.2%.
In the case of `CCCCCCCCCCCCCNc1nc(NCCN(C)C)nc(SCCCCCCCCC)n1` [Compound D1S9N13], the “Absolute mRNA transfection efficiency” value is recorded as 25.8%.
On to `CCCCCCCCCCCCCCCNc1nc(NCCN(C)C)nc(SCCCCCCCCC)n1` [Compound D1S9N15], for which the “Absolute mRNA transfection efficiency” value is 27.4%.
Turning to `CCCCCCCCCCCCCCCCNc1nc(NCCN(C)C)nc(SCCCCCCCCC)n1` [Compound D1S9N16], the “Absolute mRNA transfection efficiency” value was 25.6%.
`CCCCCCCCCCCCCCCCCCNc1nc(NCCN(C)C)nc(SCCCCCCCCC)n1` [Compound D1S9N18]: the “Absolute mRNA transfection efficiency” value is given as 47.6%.
In the case of `CCCCCCCCCCSc1nc(NCCCCCC)nc(NCCN(C)C)n1` [Compound D1S10N6] it was 0.4%; in that of `CCCCCCCCCCSc1nc(NCCCCCCC)nc(NCCN(C)C)n1` [Compound D1S10N7], 0.2%.
Consider `CCCCCCCCCCSc1nc(NCCCCCCCC)nc(NCCN(C)C)n1` [Compound D1S10N8], for which the “Absolute mRNA transfection efficiency” value worked out at 0.5%.
In the case of `CCCCCCCCCCSc1nc(NCCCCCCCCC)nc(NCCN(C)C)n1` [Compound D1S10N9] it was 0.5%; in that of `CCCCCCCCCCCNc1nc(NCCN(C)C)nc(SCCCCCCCCCC)n1` [Compound D1S10N11], 6.2%; in that of `CCCCCCCCCCCCNc1nc(NCCN(C)C)nc(SCCCCCCCCCC)n1` [Compound D1S10N12], 2.4%.
On to `CCCCCCCCCCCCCNc1nc(NCCN(C)C)nc(SCCCCCCCCCC)n1` [Compound D1S10N13], for which the “Absolute mRNA transfection efficiency” value turned out to be 1.7%.
Regarding `CCCCCCCCCCCCCCCNc1nc(NCCN(C)C)nc(SCCCCCCCCCC)n1` [Compound D1S10N15], the “Absolute mRNA transfection efficiency” value stood at 2.8%.
Take `CCCCCCCCCCCCCCCCNc1nc(NCCN(C)C)nc(SCCCCCCCCCC)n1` [Compound D1S10N16]: the “Absolute mRNA transfection efficiency” value was 40.7%.
In the case of `CCCCCCCCCCCCCCCCCCNc1nc(NCCN(C)C)nc(SCCCCCCCCCC)n1` [Compound D1S10N18] it was 4.8%.
In the case of `CCCCCCCCCCCSc1nc(NCCCCCC)nc(NCCN(C)C)n1` [Compound D1S11N6], the “Absolute mRNA transfection efficiency” value amounted to 4.4%.
In the case of `CCCCCCCCCCCSc1nc(NCCCCCCC)nc(NCCN(C)C)n1` [Compound D1S11N7] it was 11.7%; in that of `CCCCCCCCCCCSc1nc(NCCCCCCCC)nc(NCCN(C)C)n1` [Compound D1S11N8], 13.1%; in that of `CCCCCCCCCCCSc1nc(NCCCCCCCCC)nc(NCCN(C)C)n1` [Compound D1S11N9], 14.7%.
In the case of `CCCCCCCCCCCNc1nc(NCCN(C)C)nc(SCCCCCCCCCCC)n1` [Compound D1S11N11], the “Absolute mRNA transfection efficiency” value was determined as 24.7%.
In the case of `CCCCCCCCCCCCNc1nc(NCCN(C)C)nc(SCCCCCCCCCCC)n1` [Compound D1S11N12] it was 27.3%.
Regarding `CCCCCCCCCCCCCNc1nc(NCCN(C)C)nc(SCCCCCCCCCCC)n1` [Compound D1S11N13], the “Absolute mRNA transfection efficiency” value is recorded as 12.6%.
Then `CCCCCCCCCCCCCCCNc1nc(NCCN(C)C)nc(SCCCCCCCCCCC)n1` [Compound D1S11N15], with 6.2%; and `CCCCCCCCCCCCCCCCNc1nc(NCCN(C)C)nc(SCCCCCCCCCCC)n1` [Compound D1S11N16], with 13.0%.
In the case of `CCCCCCCCCCCCCCCCCCNc1nc(NCCN(C)C)nc(SCCCCCCCCCCC)n1` [Compound D1S11N18] it was 15.4%.
In the case of `CCCCCCCCCCCCSc1nc(NCCCCCC)nc(NCCN(C)C)n1` [Compound D1S12N6] it was 0.0%; in that of `CCCCCCCCCCCCSc1nc(NCCCCCCC)nc(NCCN(C)C)n1` [Compound D1S12N7], 1.5%; in that of `CCCCCCCCCCCCSc1nc(NCCCCCCCC)nc(NCCN(C)C)n1` [Compound D1S12N8], 11.3%.
As to `CCCCCCCCCCCCSc1nc(NCCCCCCCCC)nc(NCCN(C)C)n1` [Compound D1S12N9], the “Absolute mRNA transfection efficiency” value was 34.2%.
Then `CCCCCCCCCCCCSc1nc(NCCCCCCCCCCC)nc(NCCN(C)C)n1` [Compound D1S12N11], with 2.6%; and `CCCCCCCCCCCCNc1nc(NCCN(C)C)nc(SCCCCCCCCCCCC)n1` [Compound D1S12N12], with 1.7%.
Then `CCCCCCCCCCCCCNc1nc(NCCN(C)C)nc(SCCCCCCCCCCCC)n1` [Compound D1S12N13], with 1.2%; and `CCCCCCCCCCCCCCCNc1nc(NCCN(C)C)nc(SCCCCCCCCCCCC)n1` [Compound D1S12N15], with 0.5%.
Consider `CCCCCCCCCCCCCCCCNc1nc(NCCN(C)C)nc(SCCCCCCCCCCCC)n1` [Compound D1S12N16], for which the “Absolute mRNA transfection efficiency” value was 0.0%.
Then `CCCCCCCCCCCCCCCCCCNc1nc(NCCN(C)C)nc(SCCCCCCCCCCCC)n1` [Compound D1S12N18], with 0.0%.
Then `CCCCCCCCCCCCCCSc1nc(NCCCCCC)nc(NCCN(C)C)n1` [Compound D1S14N6], with 29.1%.
In the case of `CCCCCCCCCCCCCCSc1nc(NCCCCCCC)nc(NCCN(C)C)n1` [Compound D1S14N7] it was 25.7%; in that of `CCCCCCCCCCCCCCSc1nc(NCCCCCCCC)nc(NCCN(C)C)n1` [Compound D1S14N8], 56.7%; in that of `CCCCCCCCCCCCCCSc1nc(NCCCCCCCCC)nc(NCCN(C)C)n1` [Compound D1S14N9], 39.0%.
For `CCCCCCCCCCCCCCSc1nc(NCCCCCCCCCCC)nc(NCCN(C)C)n1` [Compound D1S14N11], the “Absolute mRNA transfection efficiency” value was determined as 14.3%.
As to `CCCCCCCCCCCCCCSc1nc(NCCCCCCCCCCCC)nc(NCCN(C)C)n1` [Compound D1S14N12], the “Absolute mRNA transfection efficiency” value is on record as 9.6%.
In the case of `CCCCCCCCCCCCCCSc1nc(NCCCCCCCCCCCCC)nc(NCCN(C)C)n1` [Compound D1S14N13] it was 6.0%; in that of `CCCCCCCCCCCCCCCNc1nc(NCCN(C)C)nc(SCCCCCCCCCCCCCC)n1` [Compound D1S14N15], 1.1%.
Then `CCCCCCCCCCCCCCCCNc1nc(NCCN(C)C)nc(SCCCCCCCCCCCCCC)n1` [Compound D1S14N16], with 1.8%; and `CCCCCCCCCCCCCCCCCCNc1nc(NCCN(C)C)nc(SCCCCCCCCCCCCCC)n1` [Compound D1S14N18], with 1.8%.
In the case of `CCCCCCCCCCCCCCCSc1nc(NCCCCCC)nc(NCCN(C)C)n1` [Compound D1S15N6] it was 37.7%.
On to `CCCCCCCCCCCCCCCSc1nc(NCCCCCCC)nc(NCCN(C)C)n1` [Compound D1S15N7], for which the “Absolute mRNA transfection efficiency” value came to 66.1%.
For the compound `CCCCCCCCCCCCCCCSc1nc(NCCCCCCCC)nc(NCCN(C)C)n1` [Compound D1S15N8], the “Absolute mRNA transfection efficiency” value amounted to 98.3%.
In the case of `CCCCCCCCCCCCCCCSc1nc(NCCCCCCCCC)nc(NCCN(C)C)n1` [Compound D1S15N9] it was 96.3%; in that of `CCCCCCCCCCCCCCCSc1nc(NCCCCCCCCCCC)nc(NCCN(C)C)n1` [Compound D1S15N11], 11.9%; in that of `CCCCCCCCCCCCCCCSc1nc(NCCCCCCCCCCCC)nc(NCCN(C)C)n1` [Compound D1S15N12], 4.8%.
Regarding `CCCCCCCCCCCCCCCSc1nc(NCCCCCCCCCCCCC)nc(NCCN(C)C)n1` [Compound D1S15N13], the “Absolute mRNA transfection efficiency” value is given as 1.5%.
`CCCCCCCCCCCCCCCNc1nc(NCCN(C)C)nc(SCCCCCCCCCCCCCCC)n1` [Compound D1S15N15]: the “Absolute mRNA transfection efficiency” value was found to be 0.3%.
For the compound `CCCCCCCCCCCCCCCCNc1nc(NCCN(C)C)nc(SCCCCCCCCCCCCCCC)n1` [Compound D1S15N16], the “Absolute mRNA transfection efficiency” value is 3.2%.
For the compound `CCCCCCCCCCCCCCCCCCNc1nc(NCCN(C)C)nc(SCCCCCCCCCCCCCCC)n1` [Compound D1S15N18], the “Absolute mRNA transfection efficiency” value amounted to 3.8%.
Then `CCCCCCCCCCCCCCCCSc1nc(NCCCCCC)nc(NCCN(C)C)n1` [Compound D1S16N6], with 54.2%; and `CCCCCCCCCCCCCCCCSc1nc(NCCCCCCC)nc(NCCN(C)C)n1` [Compound D1S16N7], with 65.1%; and `CCCCCCCCCCCCCCCCSc1nc(NCCCCCCCC)nc(NCCN(C)C)n1` [Compound D1S16N8], with 40.3%.
Then `CCCCCCCCCCCCCCCCSc1nc(NCCCCCCCCC)nc(NCCN(C)C)n1` [Compound D1S16N9], with 26.4%.
